Test results from PMC10244282 (Naunyn-Schmiedeberg's Archives of Pharmacology, 2023).

What was measured:
[1] = tested on: phosphorylation state of phospholamban (serine 16); assay: Western blot of serine 16 phosphorylation of phospholamban in human right atrial preparations; conditions: electrically stimulated human right atrial preparations
Excerpt: This is seen in the original tracings (Fig. 7A). […] Calsequestrin was monitored as a loading control in these gels. […] The mouse samples are shown for comparison.

[2] = tested on: atrial preparations from WT mice; assay: Isolated left and right atrial preparations from wild-type (WT) littermates; parameters: species or system mouse; conditions: for effect on beating rate in WT right atrium: spontaneously beating right atrium
Experimental: (§1) In brief, the right or left atrial preparations from the mice were isolated and mounted in organ baths as previously described (Gergs et al. [2013]; Neumann et al. [2003]). […] The solution was continuously gassed with 95% O2 and 5% CO2 and maintained at 37 °C and pH 7.4 (Kirchhefer et al. [2004]; Neumann et al. [1998], [2003]). Spontaneously beating right atrial preparations from mice were used to study any chronotropic effects.
(§2) The drug application was as follows.

human 5-HT4 receptor [3] = target: T1, human 5-HT4 receptor (Homo sapiens, UniProt Q13639); assay: Langendorff perfused hearts from 5-HT4-TG mice; parameters: species or system human (expressed in cardiomyocytes of transgenic mice); conditions: 1 µM, n = 5, p < 0.05
T1 construct: expressed in transfected cells; host or cells: cardiomyocytes of transgenic mice (alpha-myosin heavy chain promoter); isolated left and right atria and Langendorff-perfused hearts
Experimental: (§3) We followed previously reported methods for the treatment of the animals. This included the removal of the heart and lungs from the thoracic cavity, placing the dissected heart onto a cannula, the use of custom-made equipment, the buffer composition, quantification of the force from the left ventricular apex, digitization of the recordings, and freeze clamping the hearts (Boknik et al. [2019]; Gergs et al. [2019b]).
(§4) Isolated hearts were prepared according to Langendorff (1895).

[4] = parameters: method as in Ott [2001]; conditions: humans, ref Ott [2001], cited from earlier work
[5] = tested on: phosphorylation state of phospholamban (serine 16); assay: Western blot of serine 16 phosphorylation of phospholamban in cardiac preparations of 5-HT4-TG mice; conditions: 1 µM
human 5-HT4 receptor [6] = target: T1, human 5-HT4 receptor; assay: Spontaneously beating right atrial preparations from 5-HT4-TG mice, beating rate; parameters: species or system human (expressed in cardiomyocytes of transgenic mice); conditions: right atrium of 5-HT4-TG; for Beating rate: 5-HT 1 µM; for Beating rate / Beating rate in % of 1 µM 5-HT: bufotenin 3 µM, tryptamine 100 µM
Excerpt: (§5) A mouse with cardiomyocyte-specific expression of the human 5-HT4(a) receptor has been generated in our laboratory (Gergs et al. [2010]). The cardiac myocyte-specific expression was achieved by the use of the α-myosin heavy chain promoter. The age of the animals studied in the atrial contraction experiments was around 4 months. Both genders were studied. All mice were housed under conditions of optimum light, temperature, and humidity with food and water provided ad libitum. The investigation conformed to the Guide for the Care and Use of Laboratory Animals as published by the National Research Council (2011). The animals were handled and maintained according to the approved protocols of the Animal Welfare Committee of the University of Halle-Wittenberg, Halle, Germany.
as §1, §2

[7] = tested on: phosphorylation state of phospholamban (serine 16); assay: Western blot of serine 16 phosphorylation of phospholamban in cardiac preparations of WT mice; conditions: 1 µM; Langendorff hearts from WT
porcine 5-HT4 receptors = target: porcine 5-HT4 receptors; parameters: method as in Medhurst and Kaumann [1993]; conditions: isolated right atrial preparations of pigs; ref Medhurst and Kaumann [1993]; cited from earlier work
human 5-HT4 receptor [8] = target: T1, human 5-HT4 receptor; assay: Isolated electrically stimulated (1 Hz) left atrial preparations from 5-HT4-TG mice, organ bath contractility; parameters: species or system human (expressed in cardiomyocytes of transgenic mice)
Excerpt: as §5, §1, §2

[9] = target: T2, human cardiac 5-HT4 receptors (Homo sapiens, UniProt Q13639); assay: Isolated electrically stimulated (1 Hz) human right atrial preparations, contractility
T2 construct: from tissue; host or cells: human right atrial preparations (musculi pectinati) from male bypass-surgery patients
Excerpt: The contractile studies on human right atrial preparations were done using the same setup and buffer as used in the mouse studies (see “Contractile studies in mice” section). The samples were obtained from male patients that underwent a bypass surgery (Table 1). Drug therapy included β-receptor blockers, calcium channel blockers, angiotensin-converting enzyme inhibitors/angiotensin receptor blockers, diuretics, direct oral anti-coagulants, metformin, statins, and acetyl salicylic acid. Our methods used for atrial contraction studies in human samples have been previously published and were not altered in this study (Boknik et al. [2019]; Gergs et al. [2009], [2017b], [2018]). This study complies with the Declaration of Helsinki and has been approved by the local ethics committee (hm-bü 04.08.2005) and all patients gave informed consent.

[10] = tested on: Langendorff hearts from WT mice; assay: Langendorff perfused hearts from WT mice; parameters: species or system mouse; conditions: data not shown, n = 3
Experimental: as §3, §4

MAO A = tested on: MAO A; parameters: method as in Fisar et al. [2010]; conditions: in vitro, irreversible; ref Fisar et al. [2010]; read-out: IC50 (half inhibitory concentration) MAO A; cited from earlier work
MAO B = tested on: MAO B; parameters: method as in Fisar et al. [2010]; conditions: in vitro, irreversible; ref Fisar et al. [2010]; read-out: IC50 (half inhibitory concentration) MAO B; cited from earlier work
[11] = left atrium of 5-HT4-TG, 5-HT 1 µM, bufotenin 3 µM, tryptamine 100 µM
[12] = left atrium of 5-HT4-TG, bufotenin 3 µM, tryptamine 100 µM
[13] = pD2 (negative decadic logarithm of EC50), force of contraction, left atrium of 5-HT4-TG
[14] = pD2, dF/dtmax, left atrium of 5-HT4-TG
[15] = pD2, dF/dtmin, left atrium of 5-HT4-TG
[16] = pD2, time of relaxation (TR), left atrium of 5-HT4-TG
[17] = pD2, time to peak (TTP), left atrium of 5-HT4-TG

T1 sequence (Q13639 1-387 isoform Q13639-2): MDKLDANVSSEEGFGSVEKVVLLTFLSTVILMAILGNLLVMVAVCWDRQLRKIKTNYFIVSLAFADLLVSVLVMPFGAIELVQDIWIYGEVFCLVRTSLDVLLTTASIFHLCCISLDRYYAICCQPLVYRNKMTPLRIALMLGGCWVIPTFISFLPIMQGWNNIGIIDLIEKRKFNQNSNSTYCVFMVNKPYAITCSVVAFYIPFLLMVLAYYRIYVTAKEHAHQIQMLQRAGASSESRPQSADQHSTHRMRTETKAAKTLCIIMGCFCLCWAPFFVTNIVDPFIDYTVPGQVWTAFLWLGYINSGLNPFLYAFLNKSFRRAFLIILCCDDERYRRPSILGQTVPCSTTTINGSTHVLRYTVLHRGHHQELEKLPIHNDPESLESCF
T2 sequence (Q13639 whole entry): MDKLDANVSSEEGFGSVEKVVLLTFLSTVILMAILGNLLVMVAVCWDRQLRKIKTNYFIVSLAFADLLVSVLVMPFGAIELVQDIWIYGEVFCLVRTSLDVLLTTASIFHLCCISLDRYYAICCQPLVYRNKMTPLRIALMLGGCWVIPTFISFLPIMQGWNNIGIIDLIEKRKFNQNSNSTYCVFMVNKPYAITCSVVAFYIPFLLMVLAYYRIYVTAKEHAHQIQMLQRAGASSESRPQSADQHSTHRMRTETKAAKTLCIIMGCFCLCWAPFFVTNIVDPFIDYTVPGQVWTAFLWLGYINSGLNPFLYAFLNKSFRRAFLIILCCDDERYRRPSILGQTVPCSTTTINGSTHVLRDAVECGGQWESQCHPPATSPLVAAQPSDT

SMILES | effect on beating rate in WT right atrium [2] | Beating rate (human 5-HT4 receptor [6]) | Beating rate in % of 1 µM 5-HT (human 5-HT4 receptor [6]) | pD2, beating rate (porcine 5-HT4 receptors) | Force (human 5-HT4 receptor [8]; [11]) | TTP (human 5-HT4 receptor [8]; [11]) | dF/dtmax (human 5-HT4 receptor [8]; [11]) | Force in % of 1 µM 5-HT (human 5-HT4 receptor [8]; [12]) | TR in % of 1 µM 5-HT (human 5-HT4 receptor [8]; [12]) | TTP in % of 1 µM 5-HT (human 5-HT4 receptor [8]; [12]) | dF/dtmax in % of 1 µM 5-HT (human 5-HT4 receptor [8]; [12]) | dF/dtmin in % of 1 µM 5-HT (human 5-HT4 receptor [8]; [12]) | EC50 (human 5-HT4 receptor [8]; [13]) | EC50 (human 5-HT4 receptor [8]; [14]) | EC50 (human 5-HT4 receptor [8]; [15]) | EC50 (human 5-HT4 receptor [8]; [16]) | EC50 (human 5-HT4 receptor [8]; [17]) | effect in Langendorff hearts from WT mice [10] | other results
CN(C)CCc1c[nH]c2ccc(O)cc12 [Bufotenin, 5-hydroxy-N,N-dimethyl-tryptamine] | not WT | 396 ± 35 bpm | 107% ± 7% | 5.95 | 6.45 ± 0.75 mN | 12.84 ± 0.15 ms | 440.7 ± 61.25 mN/s | 91% ± 5% | 103% ± 2% | 98% ± 0% | 87% ± 6% | 88% ± 6% | 170 nM | 126 nM | 120 nM | 490 nM | 355 nM | inactive | phosphorylation state of phospholamban [1]: increased; positive inotropic effect in WT left atrial preparations ([2]; electrically stimulated (1 Hz) left atrium): no effects; force of contraction after drug (human 5-HT4 receptor [3]; increased from 9.74 ± 1.51 mN): 15.6 ± 1.42 mN; rate of relaxation after drug (human 5-HT4 receptor [3]; increased from 227 ± 43 mN/s): 515 ± 43 mN/s; rate of force development after drug (human 5-HT4 receptor [3]; increased from 315 ± 57 mN/s): 653 ± 86 mN/s; parenteral dose needed to bring about hallucinogenic effects ([4]; parenteral): 10 mg; per-oral dose needed to bring about hallucinogenic effects ([4]; per-oral): 100 mg; phosphorylation state of phospholamban on serine 16 in isolated hearts ([5]; Langendorff hearts from 5-HT4-TG): increased; phosphorylation state of phospholamban on serine 16 in atria ([5]; atria of 5-HT4-TG): increased; EC50 (human 5-HT4 receptor [6]; pD2, beating rate): 91.2 nM; phosphorylation state of phospholamban on serine 16 in isolated hearts [7]: not WT; change of the effects in left and right atrium by 50 µM pargyline (human 5-HT4 receptor [8]; left and right atrium of 5-HT4-TG, 50 µM pargyline): shifted to the left; inotropic effect in isolated paced human atrial trabeculae ([9]; 0.1–10 µM, 1 Hz): concentration- and time-dependent positive inotropic effects
CN1[C@@H]2CC[C@H]1C[C@@H](OC(=O)c1c[nH]c3ccccc13)C2 [Tropisetron, tropisetron] | – | – | – | – | – | – | – | – | – | – | – | – | – | – | – | – | – | – | antagonism of the positive inotropic effect of bufotenin ([9]; tropisetron 10 µM additionally applied): revoked the positive inotropic effect of bufotenin
NCCc1c[nH]c2ccccc12 [Tryptamine, tryptamine] | not from WT | 388 ± 41 bpm | 105% ± 5% | 4.87 | 5.74 ± 0.84 mN | 13.28 ± 0.07 ms | 393.56 ± 52.26 mN/s | 81% ± 7% | 97% ± 2% | 94% ± 1% | 78% ± 5% | 82% ± 4% | 26900 nM | 18600 nM | 18600 nM | 2880 nM | 6610 nM | inactive | EC50 (human 5-HT4 receptor [6]; read-out: pD2, beating rate (converted)): 5370 nM; agonist efficacy on 5-HT4 receptors compared to 5-HT (human 5-HT4 receptor [8]; 5-HT4-TG atrial preparations): partial agonist; efficacy to increase force of contraction and beating rate compared with isoproterenol (human 5-HT4 receptor [8]; 5-HT4-TG, 1 µM isoproterenol given after): less effective than isoproterenol; TR (human 5-HT4 receptor [8]; [11]): 27.61 ± 1.25 ms
